Laboratory results taken from US20210275522A1, “PHARMACEUTICAL COMPOSITIONS AND USE THEREOF” (priority 2018, published 2021).
Values joined by “and” are separate entries in the source; they are usually repeats but may differ in a detail not shown here. Equal entries are not always repeated.

Columns and labels:
Format in all cases: in vivo, SCID mice
[1] = system: human SKM-1 MDS xenograft; assay: Subcutaneous human SKM-1 MDS xenograft model (SZ-EF-59-2018); details: Compound 1 50 mg/kg q.d×21 d p.o., alvocidib 2.5 mg/kg q.d×21 d i.p.; for RTV@ D21 / T/C(%)@D21: day 21
Description: (§1) SKM-1 human Myelodysplastic Syndromes (MDS) were maintained in vitro as suspension cultures in RPMI 1640 medium supplemented with 20% fetal bovine serum, 100 U/mL penicillin and 100 µg/mL streptomycin. Cells were maintained at 37° C. in an atmosphere of 5% CO2 in air and passaged twice weekly. Tumor cells growing in an exponential growth phase were harvested and counted for tumor inoculation. Each mouse was inoculated subcutaneously at the right flank region with OCI-AML-3 tumor cells (5×10^6) in 0.2 mL of PBS with 50% matrigel, SKM-1 tumor cells (3×10^7) in 0.2 mL of PBS with 50% matrigel, U2932 tumor cells (1×10^7) in 0.2 mL of PBS with 50% matrigel, for tumor development. After tumor cell inoculation, the animals were checked daily for morbidity and mortality. At the time of routine monitoring, the animals were checked for any effects of tumor growth and treatments on normal behavior such as mobility, visual estimation of food and water consumption, body weight gain/loss (body weights were measured twice weekly), eye/hair matting and any other abnormal effect. Death and observed clinical signs were recorded on the basis of the numbers of animals within each subset. The entire procedures of dosing as well as tumor and body weight measurement were conducted in a Laminar Flow Cabinet. Tumor volumes were measured twice weekly in two dimensions using a caliper, and the volume was expressed in mm^3 using the formula: Tumor Volume (mm^3)=0.5a×b^2 Relative tumor volume (RTV) was calculated using the following formula: RTV=Vt/V1 Synergy score was calculated using the following formula described in Clarke R. Issues in experimental design and endpoint analysis in the study of experimental cytotoxic agents in vivo in breast cancer and other models[J]. Breast Cancer Research & Treatment, 1997, 46(2-3):255-278, which is incorporated by reference in its entirety: Synergy score=(([…]); where A: response to treatment A; B: response to treatment B; C: response to vehicle control; AB: combination of treatment A and B. Synergy score>1, synergistic; score=1, additive; score<1, antagonistic. Standard NCI procedures were used to calculate tumor parameters. Percent tumor growth inhibition (% T/C) was calculated as the mean RTV of treated tumors (T) divided by the mean RTV of control tumors (C)×100%. […] In this study, efficacy of combination treatment with Compound 1 and alvocidib was evaluated in human SKM-1 MDS xenograft model (Study No. SZ-EF-59-2018). Dose treatments were started when the mean tumor volume reached 125 mm^3, the dose treatment start day was defined as day 1.

[2] = system: human OCI-AML-3 AML xenograft; assay: Subcutaneous human OCI-AML-3 AML xenograft model (SZ-EF-42-2018); details: Compound 1 50 mg/kg q.d×15 d p.o., alvocidib 2.5 mg/kg q.d×15 d i.p.; for RTV@ D15 / T/C(%)@ D15: day 15
Description: SKM-1 human Myelodysplastic Syndromes (MDS) were maintained in vitro as suspension cultures in RPMI 1640 medium supplemented with 20% fetal bovine serum, 100 U/mL penicillin and 100 µg/mL streptomycin. Cells were maintained at 37° C. in an atmosphere of 5% CO2 in air and passaged twice weekly. Tumor cells growing in an exponential growth phase were harvested and counted for tumor inoculation. Each mouse was inoculated subcutaneously at the right flank region with OCI-AML-3 tumor cells (5×10^6) in 0.2 mL of PBS with 50% matrigel, SKM-1 tumor cells (3×10^7) in 0.2 mL of PBS with 50% matrigel, U2932 tumor cells (1×10^7) in 0.2 mL of PBS with 50% matrigel, for tumor development. After tumor cell inoculation, the animals were checked daily for morbidity and mortality. At the time of routine monitoring, the animals were checked for any effects of tumor growth and treatments on normal behavior such as mobility, visual estimation of food and water consumption, body weight gain/loss (body weights were measured twice weekly), eye/hair matting and any other abnormal effect. Death and observed clinical signs were recorded on the basis of the numbers of animals within each subset. The entire procedures of dosing as well as tumor and body weight measurement were conducted in a Laminar Flow Cabinet. Tumor volumes were measured twice weekly in two dimensions using a caliper, and the volume was expressed in mm^3 using the formula: Tumor Volume (mm^3)=0.5a×b^2 Relative tumor volume (RTV) was calculated using the following formula: RTV=Vt/V1 Synergy score was calculated using the following formula described in Clarke R. Issues in experimental design and endpoint analysis in the study of experimental cytotoxic agents in vivo in breast cancer and other models[J]. Breast Cancer Research & Treatment, 1997, 46(2-3):255-278, which is incorporated by reference in its entirety: Synergy score=(([…]); where A: response to treatment A; B: response to treatment B; C: response to vehicle control; AB: combination of treatment A and B. Synergy score>1, synergistic; score=1, additive; score<1, antagonistic. Standard NCI procedures were used to calculate tumor parameters. Percent tumor growth inhibition (% T/C) was calculated as the mean RTV of treated tumors (T) divided by the mean RTV of control tumors (C)×100%. […] Alvocidib is a flavonoid alkaloid CDK9 kinase inhibitor, which is the first CDKi under clinical development for the treatment of acute myeloid leukemia. In this study, efficacy of combination treatment with Compound 1 and alvocidib was evaluated in human OCI-AML-3 AML xenograft model (Study No. SZ-EF-42-2018). Dose treatments were started when the mean tumor volume reached 95 mm^3, the dose treatment start day was defined as day 1.

[3] = system: human U2932 DLBCL xenograft; assay: Subcutaneous human U2932 DLBCL xenograft model, combination with alvocidib (SZ-EF-62-2018); details: for antitumor activity (in words) / RTV@ D19 / T/C(%)@D19: Compound 1 50 mg/kg q.d×19 d p.o., alvocidib 2.5 mg/kg q.d×7 d and q.w×2 w i.p.; for RTV@ D19 / T/C(%)@D19: day 19
Description: as §1, with “U2932 DLBCL” for “SKM-1 MDS”, “SZ-EF-62-2018).” for “SZ-EF-59-2018).”

[4] = system: human U2932 DLBCL xenograft; assay: Subcutaneous human U2932 DLBCL xenograft model, combination with dinaciclib (SZ-EF-37-2019); details: for antitumor activity (in words) / RTV @ D21 (Mean + SEM) / T/C(%)@D21: Compound 1 30 mg/kg, dinaciclib 20 mg/kg; for mRECIST: SD (stable disease): animals with SD / animals in group; for RTV @ D21 (Mean + SEM) / T/C(%)@D21: day 21
Description: SKM-1 human Myelodysplastic Syndromes (MDS) were maintained in vitro as suspension cultures in RPMI 1640 medium supplemented with 20% fetal bovine serum, 100 U/mL penicillin and 100 µg/mL streptomycin. Cells were maintained at 37° C. in an atmosphere of 5% CO2 in air and passaged twice weekly. Tumor cells growing in an exponential growth phase were harvested and counted for tumor inoculation. Each mouse was inoculated subcutaneously at the right flank region with OCI-AML-3 tumor cells (5×10^6) in 0.2 mL of PBS with 50% matrigel, SKM-1 tumor cells (3×10^7) in 0.2 mL of PBS with 50% matrigel, U2932 tumor cells (1×10^7) in 0.2 mL of PBS with 50% matrigel, for tumor development. Tumor volumes were measured twice weekly in two dimensions using a caliper, and the volume was expressed in mm^3 using the formula: […] Relative tumor volume (RTV) was calculated using the following formula: […] Synergy score was calculated using the following formula described in Clarke R. Issues in experimental design and endpoint analysis in the study of experimental cytotoxic agents in vivo in breast cancer and other models[J]. Breast Cancer Research & Treatment, 1997, 46(2-3):255-278, which is incorporated by reference in its entirety: Synergy score=(([…]); where A: response to treatment A; B: response to treatment B; C: response to vehicle control; AB: combination of treatment A and B. […] Standard NCI procedures were used to calculate tumor parameters. Percent tumor growth inhibition (% T/C) was calculated as the mean RTV of treated tumors (T) divided by the mean RTV of control tumors (C)×100%. […] To confirm the synergistic antitumor effect between Compound 1 and CDK9 inhibitor in DLBCL, we applied combination therapy with Compound 1 plus CDK9 inhibitor dinaciclib in the same human U2932 DLBCL xenograft model, which was established according to embodiment 2.

Structure (SMILES)	antitumor activity (in words) [1]	RTV@ D21 [1]	T/C(%)@D21 [1]	antitumor activity (in words) [2]	RTV@ D15 [2]	T/C(%)@ D15 [2] [%]	antitumor activity (in words) [3]	RTV@ D19 [3]	T/C(%)@D19 [3] [%]	T/C(%)@D19 ([3]; listed as alvocidib) [%]	occurrence of CR or PR ([3]; single arm)	antitumor activity (in words) [4]	mRECIST: SD (stable disease) [4]	RTV @ D21 (Mean + SEM) [4]	T/C(%)@D21 [4] [%]	mRECIST: PD (progressive disease) ([4]; animals with PD / animals in group)
CN1CC[C@H](c2c(O)cc(O)c3c(=O)cc(-c4ccccc4Cl)oc23)[C@H](O)C1 [Alvocidib, alvocidib]	no antitumor activity	17.2 ± 2.1	78.5%	moderate antitumor activity	14.0 ± 1.5	58.8	antitumor activity	1.19 ± 0.27	25.2	30.9	no CR or PR	–	–	–	–	–
O=C(NS(=O)(=O)c1ccc(NC[C@H]2COCCO2)c([N+](=O)[O-])c1)c1ccc(N2CCN(CC3=C(c4ccc(Cl)cc4)CC4(CCC4)CC3)CC2)cc1Oc1cnc2[nH]ccc2c1 [Compound 1, (S)—N-((4-(((1,4-dioxan-2-yl)methyl)amino)-3-nitrophenyl)sulfonyl)-2-((1H-pyrrolo[2,3-b]pyridin-5-yl)oxy)-4-(4-((6-(4-chlorophenyl)spiro[3.5]non-6-en-7-yl)methyl)piperazin-1-yl)benzamide]	moderate antitumor activity	14.7 ± 1.5	68.3% and 67.3%	no antitumor activity	28.6 ± 2.3	120.2	antitumor activity	1.46 ± 0.17	30.9	–	–	moderate antitumor activity	5/5 SD	2.79 ± 0.22	53.26	–
CCc1cnn2c(NCc3ccc[n+]([O-])c3)cc(N3CCCC[C@H]3CCO)nc12 [Dinaciclib, dinaciclib]	–	–	–	–	–	–	–	–	–	–	–	no antitumor activity	3/5	3.74 ± 0.58	71.55	2/5
